Reference: patent US6653064B1, “Method for identifying compounds useful in the therapy of bone disorders” (Boehringer Ingelheim International GmbH, priority 1999, dated 2003)

How the values were obtained:
[1] = system: endogenous fra-1; assay: RT-PCR analysis of fra-1 transcripts in primary osteoblast cultures; assay type: cell-based, mice; settings: wild-type osteoblasts, cultures 7 days after plating, not expressed without stimulation
Experimental: To further investigate the consequences of Fra-1 expression on osteoblasts, primary osteoblasts were prepared from the calvariae of neonatal (6-8 days old) mice and differentiated in vitro. Calvariae were sequentially digested for 10 minutes in α-MEM containing 0.1% collagenase and 0.2% dispase. Cells isolated by fractions 2 to 5 were combined as an osteoblastic cell population, expanded for 2 days in α-MEM with 10% FCS and replated at a density of 10^4 cells per cm^2. After reaching confluency, medium was supplemented with 5 mM β-glycerophosphate and 100 μg/ml ascorbic acid. There was no difference in the proliferation between wild-type and transgenic osteoblasts. The time course of differentiation was followed by ALP activity and by the deposition of mineralized extracelluar matrix. For ALP activity measurement, cells were washed with PBS and sonicated in 10 mM Tris-HCl buffer (pH 8.0). ALP activity in the lysate was measured using a calorimetric assay (Sigma). […] In transgenic cultures, areas of mineralized extracellular matrix monitored by alizarine red S staining were first observed at day 12, when no stained areas were present in wild-type cultures (FIG. 5b). […]
5′-GTACCGAGACTACGGGGAACCGG-3′ SEQ. […] Exogenous and endogenous fra-1 was detected in transgenic osteoblasts, irrespective of induction by phorbol myristate acetate (PMA) (FIG. 5c). […]

[2] = system: Fra-1 expression; settings: substance known to induce Fra-1 expression (Yoshioka et al., 1995); cited from earlier work

Row | SMILES | expression of endogenous fra-1 upon stimulation [1] | Fra-1 expression in cultured cells [2]
1 | CCCCCCCCCCCCCC(=O)O[C@@H]1[C@@H](C)[C@@]2(O)[C@@H](C=C(CO)C[C@]3(O)C(=O)C(C)=C[C@@H]23)[C@@H]2C(C)(C)[C@]12OC(C)=O [PMA, phorbol myristate acetate] | induced | –
2 | CC(C)(C)c1cc(O)ccc1O [tert-butylhydroquinone] | – | induce Fra-1 expression
